Source: ChEMBL document CHEMBL5532681, “Cannabidiol Inhibits Epithelial Ovarian Cancer: Role of Gut Microbiome” (J Nat Prod, 2024)
Calls of active or inactive are those of the source. The calls are words filed in the database; no cut-off is given here.

What was measured:
A2780 [1] = assay: Antitumor activity against human A2780 cells xenografted in BALB/c female nude mouse assessed as decrease in tumor weight at 10 to 20 mg/kg, ip administered on day 24 and measured every other day for 45 days; assay type: functional, organism-based; details: dose 10-20 mg/kg, time 45.0 day
A2780 [2] = assay: Antiproliferative activity against human A2780 cells assessed as decrease in cell viability incubated for 24 to 72 hrs by CCK-8 assay; assay type: functional, cell-based; details: time 24-72 hrs
A2780 [3] = assay: Antiproliferative activity against human A2780 cells assessed as decrease in cell viability at 3 to 12 uM by CCK-8 assay; assay type: functional, cell-based; details: dose 3-12 µM, TDE = time-dependent effect
ES-2 [4] = assay: Antiproliferative activity against human ES2 cells assessed as decrease in cell viability incubated for 24 to 72 hrs by CCK-8 assay; assay type: functional, cell-based; details: time 24-72 hrs
ES-2 [5] = assay: Antiproliferative activity against human ES2 cells assessed as decrease in cell viability at 3 to 12 uM by CCK-8 assay; assay type: functional, cell-based; details: dose 3-12 µM, TDE = time-dependent effect
A2780 [6] = assay: Antiproliferative activity against human A2780 cells assessed as decrease in cell viability at 3 to 12 uM incubated for 24 hrs by crystal violet staining based assay; assay type: functional; details: dose 3-12 µM
ES-2 [7] = assay: Antiproliferative activity against human ES2 cells assessed as decrease in cell viability at 3 to 12 uM incubated for 24 hrs by crystal violet staining based assay; assay type: functional; details: dose 3-12 µM
A2780 [8] = assay: Antiproliferative activity against human A2780 cells assessed as decrease in cell viability at 12 uM incubated for 24 hrs by crystal violet staining based assay relative to control; assay type: functional
ES-2 [9] = assay: Antiproliferative activity against human ES2 cells assessed as decrease in cell viability at 12 uM incubated for 24 hrs by crystal violet staining based assay relative to control; assay type: functional
A2780 [10] = assay: Inhibition of cell migration in human A2780 cells assessed as decrease in migration distance at 3 uM incubated for 24 hrs by wound healing assay relative to control; assay type: functional; parameters: scale not given: the % may be the effect or the level left
A2780 [11] = assay: Inhibition of cell migration in human A2780 cells assessed as decrease in migration distance at 6 uM incubated for 24 hrs by wound healing assay relative to control; assay type: functional; parameters: scale not given: the % may be the effect or the level left
A2780 [12] = assay: Inhibition of cell migration in human A2780 cells assessed as decrease in migration distance at 12 uM incubated for 24 hrs by wound healing assay relative to control; assay type: functional; parameters: scale not given: the % may be the effect or the level left
ES-2 [13] = assay: Inhibition of cell migration in human ES2 cells assessed as decrease in migration distance at 3 uM incubated for 24 hrs by wound healing assay relative to control; assay type: functional; parameters: scale not given: the % may be the effect or the level left
ES-2 [14] = assay: Inhibition of cell migration in human ES2 cells assessed as decrease in migration distance at 6 uM incubated for 24 hrs by wound healing assay relative to control; assay type: functional; parameters: scale not given: the % may be the effect or the level left
ES-2 [15] = assay: Inhibition of cell migration in human ES2 cells assessed as decrease in migration distance at 12 uM incubated for 24 hrs by wound healing assay relative to control; assay type: functional; parameters: scale not given: the % may be the effect or the level left
A2780 [16] = assay: Inhibition of cell invasion in human A2780 cells assessed as decrease in invasion rate at 3 uM incubated for 48 hrs by transwell assay; assay type: functional; parameters: scale not given: the % may be the effect or the level left
A2780 [17] = assay: Inhibition of cell invasion in human A2780 cells assessed as decrease in invasion rate at 6 uM incubated for 48 hrs by transwell assay; assay type: functional; parameters: scale not given: the % may be the effect or the level left
A2780 [18] = assay: Inhibition of cell invasion in human A2780 cells assessed as decrease in invasion rate at 12 uM incubated for 48 hrs by transwell assay; assay type: functional; parameters: scale not given: the % may be the effect or the level left
ES-2 [19] = assay: Inhibition of cell invasion in human ES2 cells assessed as decrease in invasion rate 3 uM incubated for 48 hrs by transwell assay; assay type: functional; parameters: scale not given: the % may be the effect or the level left
ES-2 [20] = assay: Inhibition of cell invasion in human ES2 cells assessed as decrease in invasion rate at 6 uM incubated for 48 hrs by transwell assay; assay type: functional; parameters: scale not given: the % may be the effect or the level left
ES-2 [21] = assay: Inhibition of cell invasion in human ES2 cells assessed as decrease in invasion rate at 12 uM incubated for 48 hrs by transwell assay; assay type: functional; parameters: scale not given: the % may be the effect or the level left
A2780 [22] = assay: Downregulation of AKT expression in human A2780 cells by Westernblot analysis; assay type: functional, cell-based
A2780 [23] = assay: Downregulation of EGFR expression in human A2780 cells by Westernblot analysis; assay type: functional, cell-based
A2780 [24] = assay: Downregulation of MMP-2 expression in human A2780 cells by Westernblot analysis; assay type: functional, cell-based
A2780 [25] = assay: Downregulation of MMP-9 expression in human A2780 cells by Westernblot analysis; assay type: functional, cell-based
ES-2 [26] = assay: Downregulation of AKT expression in human ES2 cells by Westernblot analysis; assay type: functional, cell-based
ES-2 [27] = assay: Downregulation of EGFR expression in human ES2 cells by Westernblot analysis; assay type: functional, cell-based
ES-2 [28] = assay: Downregulation of MMP-2 expression in human ES2 cells by Westernblot analysis; assay type: functional, cell-based
ES-2 [29] = assay: Downregulation of MMP-9 expression in human ES2 cells by Westernblot analysis; assay type: functional, cell-based
[30] = Downregulation of EGFR expression in human A2780 cells at 12 uM by Westernblot analysis relative to control; assay type: functional
[31] = Downregulation of MMP-2 expression in human A2780 cells at 12 uM by Westernblot analysis relative to control; assay type: functional
[32] = Downregulation of MMP-9 expression in human A2780 cells at 12 uM by Westernblot analysis relative to control; assay type: functional
[33] = Downregulation of EGFR expression in human ES2 cells at 12 uM by Westernblot analysis relative to control; assay type: functional, ES-2
[34] = Downregulation of MMP-2 expression in human ES2 cells at 12 uM by Westernblot analysis relative to control; assay type: functional, ES-2
[35] = Downregulation of MMP-9 expression in human ES2 cells at 12 uM by Westernblot analysis relative to control; assay type: functional, ES-2
A2780 [36] = assay: Antitumor activity against human A2780 cells xenografted in BALB/c female nude mouse assessed as decrease in body weight at 10 to 20 mg/kg, ip administered on day 24 and measured every other day for 45 days; assay type: functional, organism-based; details: dose 10-20 mg/kg, time 45.0 day
A2780 [37] = assay: Antitumor activity against human A2780 cells xenografted in BALB/c female nude mouse assessed as decrease in tumor growth rate at 10 to 20 mg/kg, ip administered on day 24 and measured every other day for 45 days; assay type: functional, organism-based; details: dose 10-20 mg/kg, time 45.0 day
A2780 [38] = assay: Antitumor activity against human A2780 cells xenografted in BALB/c female nude mouse assessed as decrease in tumor volume at 10 to 20 mg/kg, ip administered on day 24 and measured every other day for 45 days; assay type: functional, organism-based; details: dose 10-20 mg/kg, time 45.0 day
[39] = Toxicity in human A2780 cells xenografted in BALB/c female nude mouse assessed as effect on spleen index at 10 to 20 mg/kg, ip administered on day 24 and measured every other day for 45 days; assay type: organism-based; details: in vivo, 1080 h, dose 10-20 mg/kg, time 45 day
[40] = Toxicity in human A2780 cells xenografted in BALB/c female nude mouse assessed as effect on body weight at 10 to 20 mg/kg, ip administered on day 24 and measured every other day for 45 days; assay type: organism-based; details: in vivo, 1080 h, dose 10-20 mg/kg, time 45 day
A2780 [41] = assay: Antitumor activity against human A2780 cells xenografted in BALB/c female nude mouse assessed as disordered tumor cells at 10 to 20 mg/kg, ip administrated for 28 days by HE staining based analysis; assay type: functional, organism-based; details: dose 10-20 mg/kg, time 28.0 day
A2780 [42] = assay: Antitumor activity against human A2780 cells xenografted in BALB/c female nude mouse assessed as irregular tumor shape at 10 to 20 mg/kg, ip administrated for 28 days by HE staining based analysis; assay type: functional, organism-based; details: dose 10-20 mg/kg, time 28.0 day
A2780 [43] = assay: Antitumor activity against human A2780 cells xenografted in BALB/c female nude mouse assessed as reduction in cells with hyaline cytoplasm at 10 to 20 mg/kg, ip administrated for 28 days by HE staining based analysis; assay type: functional, organism-based; details: dose 10-20 mg/kg, time 28.0 day
A2780 [44] = assay: Antitumor activity against human A2780 cells xenografted in BALB/c female nude mouse assessed as decrease in AKT positive cells at 10 to 20 mg/kg, ip administrated for 28 days by immunohistochemical analysis; assay type: functional, organism-based; details: dose 10-20 mg/kg, time 28.0 day
A2780 [45] = assay: Antitumor activity against human A2780 cells xenografted in BALB/c female nude mouse assessed as reduction in EGFR positive cells at 20 mg/kg, ip administrated for 28 days by immunohistochemical analysis; assay type: functional, organism-based; details: time 28.0 day
A2780 [46] = assay: Anticancer activity against human A2780 cells xenografted in BALB/c female nude mouse assessed as decrease in abundance of firmicutes at 10 to 20 mg/kg, ip administrated for 28 days; assay type: functional, organism-based; details: dose 10-20 mg/kg, time 28.0 day
A2780 [47] = assay: Anticancer activity against human A2780 cells xenografted in BALB/c female nude mouse assessed as increase in abundance of alistipes at 10 to 20 mg/kg, ip administrated for 28 days; assay type: functional, organism-based; details: dose 10-20 mg/kg, time 28.0 day
A2780 [48] = assay: Anticancer activity against human A2780 cells xenografted in BALB/c female nude mouse assessed as increase in intestinal microbial diversity at 10 to 20 mg/kg, ip administrated for 28 days; assay type: functional, organism-based; details: dose 10-20 mg/kg, time 28.0 day

## C=C(C)[C@@H]1CCC(C)=C[C@H]1c1c(O)cc(CCCCC)cc1O [CANNABIDIOL]
A2780 [1]
  Activity: Active
A2780 [2]
  Activity: Dose-Dependent Effect
A2780 [3]
  Activity: Tde
ES-2 [4]
  Activity: Dose-Dependent Effect
ES-2 [5]
  Activity: Tde
A2780 [6]
  Activity: Dose-Dependent Effect
ES-2 [7]
  Activity: Dose-Dependent Effect
A2780 [8]
  Activity: 27%
ES-2 [9]
  Activity: 24%
A2780 [10]
  Activity: 75%
A2780 [11]
  Activity: 62%
A2780 [12]
  Activity: 52%
ES-2 [13]
  Activity: 73%
ES-2 [14]
  Activity: 53%
ES-2 [15]
  Activity: 26%
A2780 [16]
  Activity: 71%
A2780 [17]
  Activity: 56%
A2780 [18]
  Activity: 61%
ES-2 [19]
  Activity: 80%
ES-2 [20]
  Activity: 39%
ES-2 [21]
  Activity: 32%
A2780 [22]
  Activity: Dose-Dependent Effect
A2780 [23]
  Activity: Dose-Dependent Effect
A2780 [24]
  Activity: Dose-Dependent Effect
A2780 [25]
  Activity: Dose-Dependent Effect
ES-2 [26]
  Activity: Dose-Dependent Effect
ES-2 [27]
  Activity: Dose-Dependent Effect
ES-2 [28]
  Activity: Dose-Dependent Effect
ES-2 [29]
  Activity: Dose-Dependent Effect
[30]
  Activity: 58%
[31]
  Activity: 77%
[32]
  Activity: 77%
[33]
  Activity: 79%
[34]
  Activity: 77%
[35]
  Activity: 81%
A2780 [36]
  Activity: Active
A2780 [37]
  Activity: Active
A2780 [38]
  Activity: Active
[39]
  Activity: Non-Toxic
[40]
  Activity: Non-Toxic
A2780 [41]
  Activity: Active
A2780 [42]
  Activity: Active
A2780 [43]
  Activity: Active
A2780 [44]
  Activity: Active
A2780 [45]
  Activity: Active
A2780 [46]
  Activity: Active
A2780 [47]
  Activity: Active
A2780 [48]
  Activity: Active
